Here are results for 20 compounds from patent US12692249B2, “WDR5 inhibitors and modulators” (Vanderbilt University, priority 2019, dated 2026).

Assay [1] concerns the target WDR5 (Homo sapiens, UniProt P61964). The assay can be described thus: TR-FRET competition binding assay, displacement of 10mer-Thr-FAM MLL peptide probe from His-tagged WDR5. As to conditions: WDR5-His tag (residues 24-334) 2 nM; 10mer-Thr-FAM 150 nM; 60 min, room temperature; read-out: Ki for Inhibition of WDR5 by TR-FRET assay.
Assay [2] deals with MV4:11 human cancer cell lines. The assay can be described thus: Cellular viability / anti-proliferative assay, CellTiter-Glo, 5 day protocol. The format is cell-based. The settings on record: Homo sapiens, MV4-11, 120 h, MV4:11 cells; 5 day incubation; CellTiter-Glo; mean of at least two replicates; read-out: GI50 on cellular proliferation of MV4:11 human cancer cell lines. A digest of the protocol:
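Luminescent ATP-based viability (CellTiter-Glo) after a 5-day exposure gave GI50 via sigmoidal fitting, averaged over two or more replicates. Compounds spanned 22 two-fold steps down from 30 μM at 0.3% DMSO, on 200 MV-4-11 cells per well grown in IMDM plus 10% FBS.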

Where only a bound is given, the exact number is not on record here.

Take `CCc1cc(C(=O)NCc2cnccn2)c2nccc(N3CCc4c(cc(Cn5ccnc5)cc4-c4cn(C)nc4C(F)(F)F)C3=O)c2c1` [Example 173, 4-(7-((1H-Imidazol-1-yl)methyl)-5-(1-methyl-3-(trifluoromethyl)-1H-pyrazol-4-yl)-1-oxo-3,4-dihydroisoquinolin-2(1H)-yl)-6-ethyl-N-(pyrazin-2-ylmethyl)quinoline-8-carboxamide]: the Ki in assay [1] is less than 0.02 nM. In addition, the GI50 in assay [2] was less than 20 nM.

As for `COc1cc(C#N)c2nc(C)cc(N3CCc4c(cc(Cn5ccnc5)cc4-c4cn(C)nc4C(F)(F)F)C3=O)c2c1` [Example 175, 4-(7-((1H-Imidazol-1-yl)methyl)-5-(1-methyl-3-(trifluoromethyl)-1H-pyrazol-4-yl)-1-oxo-3,4-dihydroisoquinolin-2(1H)-yl)-6-methoxy-2-methylquinoline-8-carbonitrile], the inhibition constant (Ki) in assay [1] is less than 0.02 nM. The GI50 in assay [2] was less than 20 nM.

For the compound `CCc1cc(OC(F)(F)F)c2nccc(N3CCc4c(cc(Cn5ccnc5)cc4-c4cn(C)nc4C(F)(F)F)C3=O)c2c1` [Example 176, 7-((1H-imidazol-1-yl)methyl)-2-(6-ethyl-8-(trifluoromethoxy)quinolin-4-yl)-5-(1-methyl-3-(trifluoromethyl)-1H-pyrazol-4-yl)-3,4-dihydroisoquinolin-1(2H)-one], the inhibition constant Ki in assay [1] is less than 0.02 nM. Besides, the GI50 in assay [2] is 33 nM.

Turning to `CCc1cc(COC2CNC2)c2nccc(N3CCc4c(cc(Cn5ccnc5)cc4-c4cn(C)nc4C(F)(F)F)C3=O)c2c1` [Example 179, 7-((1H-Imidazol-1-yl)methyl)-2-(8-((azetidin-3-yloxy)methyl)-6-ethylquinolin-4-yl)-5-(1-methyl-3-(trifluoromethyl)-1H-pyrazol-4-yl)-3,4-dihydroisoquinolin-1(2H)-one], in assay [1], the Ki is less than 0.02 nM. For the same compound, in assay [2], the GI50 was 33 nM.

Regarding `COc1cc(C(=O)NS(C)(=O)=O)c2nc(C)cc(N3CCc4c(cc(Cn5ccnc5)cc4-c4cn(C)nc4C(F)(F)F)C3=O)c2c1` [Example 181, 4-(7-((1H-Imidazol-1-yl)methyl)-5-(1-methyl-3-(trifluoromethyl)-1H-pyrazol-4-yl)-1-oxo-3,4-dihydroisoquinolin-2(1H)-yl)-6-methoxy-2-methyl-N-(methylsulfonyl)quinoline-8-carboxamide], the Ki in assay [1] was 0.04 nM. Moreover, in assay [2], the GI50 is 856 nM.

For `CCc1cc(COC2CCOCC2)c2nccc(N3CCc4c(cc(Cn5ccnc5)cc4-c4cn(C)nc4C(F)(F)F)C3=O)c2c1` [Example 182, 7-((1H-Imidazol-1-yl)methyl)-2-(6-ethyl-8-(((tetrahydro-2H-pyran-4-yl)oxy)methyl)quinolin-4-yl)-5-(1-methyl-3-(trifluoromethyl)-1H-pyrazol-4-yl)-3,4-dihydroisoquinolin-1(2H)-one], in assay [1], the Ki was less than 0.02 nM. For the same compound, the GI50 in assay [2] is less than 20 nM.

Take `CNC(=O)c1cc(OC)cc2c(N3CCc4c(cc(Cn5ccnc5)cc4-c4cn(C)nc4C(F)(F)F)C3=O)cc(C)nc12` [Example 183, 4-(7-((1H-Imidazol-1-yl)methyl)-5-(1-methyl-3-(trifluoromethyl)-1H-pyrazol-4-yl)-1-oxo-3,4-dihydroisoquinolin-2(1H)-yl)-6-methoxy-N,2-dimethylquinoline-8-carboxamide]: the inhibition constant Ki in assay [1] is less than 0.02 nM. In addition, the GI50 in assay [2] was less than 20 nM.

As to `COc1cc(C(=N)NO)c2nc(C)cc(N3CCc4c(cc(Cn5ccnc5)cc4-c4cn(C)nc4C(F)(F)F)C3=O)c2c1` [Example 184, 4-(7-((1H-Imidazol-1-yl)methyl)-5-(1-methyl-3-(trifluoromethyl)-1H-pyrazol-4-yl)-1-oxo-3,4-dihydroisoquinolin-2(1H)-yl)-N-hydroxy-6-methoxy-2-methylquinoline-8-carboximidamide], the Ki in assay [1] was less than 0.02 nM. The GI50 in assay [2] was determined as 21 nM.

Turning to `CCc1cc(C(=O)NC2CCN(C)CC2)c2nccc(N3CCc4c(cc(Cn5ccnc5)cc4-c4cn(C)nc4C(F)(F)F)C3=O)c2c1` [Example 186, 4-(7-((1H-Imidazol-1-yl)methyl)-5-(1-methyl-3-(trifluoromethyl)-1H-pyrazol-4-yl)-1-oxo-3,4-dihydroisoquinolin-2(1H)-yl)-6-ethyl-N-(1-methylpiperidin-4-yl)quinoline-8-carboxamide], the Ki in assay [1] was less than 0.02 nM. For the same compound, the GI50 in assay [2] is less than 20 nM.

Take `CCc1cc(COc2ccncc2)c2nccc(N3CCc4c(cc(Cn5ccnc5)cc4-c4cn(C)nc4C(F)(F)F)C3=O)c2c1` [Example 187, 7-((1H-Imidazol-1-yl)methyl)-2-(6-ethyl-8-((pyridin-4-yloxy)methyl)quinolin-4-yl)-5-(1-methyl-3-(trifluoromethyl)-1H-pyrazol-4-yl)-3,4-dihydroisoquinolin-1(2H)-one]: the Ki in assay [1] is less than 0.02 nM. Besides, the GI50 in assay [2] came out at 43 nM.

With `CCc1cc(COC)c2nccc(N3CCc4c(cc(Cn5ccnc5)cc4-c4cn(C)nc4C(F)(F)F)C3=O)c2c1` [Example 188, 7-((1H-Imidazol-1-yl)methyl)-2-(6-ethyl-8-(methoxymethyl)quinolin-4-yl)-5-(1-methyl-3-(trifluoromethyl)-1H-pyrazol-4-yl)-3,4-dihydroisoquinolin-1(2H)-one], the Ki in assay [1] is less than 0.02 nM. Also, in assay [2], the GI50 was less than 20 nM.

Consider `COc1cc(C(=O)NC2CCN(C)CC2)c2nc(C)cc(N3CCc4c(cc(Cn5ccnc5)cc4-c4cn(C)nc4C(F)(F)F)C3=O)c2c1` [Example 189, 4-(7-((1H-Imidazol-1-yl)methyl)-5-(1-methyl-3-(trifluoromethyl)-1H-pyrazol-4-yl)-1-oxo-3,4-dihydroisoquinolin-2(1H)-yl)-6-methoxy-2-methyl-N-(1-methylpiperidin-4-yl)quinoline-8-carboxamide], for which the Ki in assay [1] is less than 0.02 nM. Also, in assay [2], the GI50 was less than 20 nM.

For the compound `CCc1cc(C(=O)NCCOC)c2nc(C)cc(N3CCc4c(cc(Cn5ccnc5)cc4-c4cn(C)nc4C(F)(F)F)C3=O)c2c1` [Example 190, 4-(7-((1H-Imidazol-1-yl)methyl)-5-(1-methyl-3-(trifluoromethyl)-1H-pyrazol-4-yl)-1-oxo-3,4-dihydroisoquinolin-2(1H)-yl)-6-ethyl-N-(2-methoxyethyl)-2-methylquinoline-8-carboxamide], in assay [1], the Ki was less than 0.02 nM. The GI50 in assay [2] was less than 20 nM.

With `CCc1cc(COC2COC2)c2nccc(N3CCc4c(cc(Cn5ccnc5)cc4-c4cn(C)nc4C(F)(F)F)C3=O)c2c1` [Example 191, 7-((1H-Imidazol-1-yl)methyl)-2-(6-ethyl-8-((oxetan-3-yloxy)methyl)quinolin-4-yl)-5-(1-methyl-3-(trifluoromethyl)-1H-pyrazol-4-yl)-3,4-dihydroisoquinolin-1(2H)-one], in assay [1], the Ki was less than 0.02 nM. The GI50 in assay [2] is less than 20 nM.

In the case of `CCc1cc(C(=O)NCCN(C)C)c2nc(C)cc(N3CCc4c(cc(Cn5ccnc5)cc4-c4cn(C)nc4C(F)(F)F)C3=O)c2c1` [Example 194, 4-(7-((1H-Imidazol-1-yl)methyl)-5-(1-methyl-3-(trifluoromethyl)-1H-pyrazol-4-yl)-1-oxo-3,4-dihydroisoquinolin-2(1H)-yl)-N-(2-(dimethylamino)ethyl)-6-ethyl-2-methylquinoline-8-carboxamide], the inhibition constant (Ki) in assay [1] is less than 0.02 nM. Also, the GI50 in assay [2] is less than 20 nM.

Turning to `COc1cc(N2CCC(OC)CC2)c2nc(C)cc(N3CCc4c(cc(Cn5ccnc5)cc4-c4cn(C)nc4C(F)(F)F)C3=O)c2c1` [Example 195, 7-((1H-Imidazol-1-yl)methyl)-2-(6-methoxy-8-(4-methoxypiperidin-1-yl)-2-methylquinolin-4-yl)-5-(1-methyl-3-(trifluoromethyl)-1H-pyrazol-4-yl)-3,4-dihydroisoquinolin-1(2H)-one], the Ki in assay [1] is less than 0.02 nM. The GI50 in assay [2] is less than 20 nM.

As for `CCc1cc(N2C[C@H]3CN(C)C[C@H]3C2)c2nc(C)cc(N3CCc4c(cc(Cn5ccnc5)cc4-c4cn(C)nc4C(F)(F)F)C3=O)c2c1` [Example 197, 7-((1H-Imidazol-1-yl)methyl)-2-(6-ethyl-2-methyl-8-((3aR,6aS)-5-methylhexahydropyrrolo[3,4-c]pyrrol-2(1H)-yl)quinolin-4-yl)-5-(1-methyl-3-(trifluoromethyl)-1H-pyrazol-4-yl)-3,4-dihydroisoquinolin-1(2H)-one], the Ki in assay [1] stood at 0.02 nM. Moreover, the GI50 in assay [2] was less than 20 nM.

In the case of `COc1cc(C(=O)Nc2ncco2)c2nc(C)cc(N3CCc4c(cc(Cn5ccnc5)cc4-c4cn(C)nc4C(F)(F)F)C3=O)c2c1` [Example 200, 4-(7-((1H-Imidazol-1-yl)methyl)-5-(1-methyl-3-(trifluoromethyl)-1H-pyrazol-4-yl)-1-oxo-3,4-dihydroisoquinolin-2(1H)-yl)-6-methoxy-2-methyl-N-(oxazol-2-yl)quinoline-8-carboxamide], the inhibition constant (Ki) in assay [1] was less than 0.02 nM. In assay [2], the GI50 was determined as 28 nM.

For the compound `COc1cc(-c2cn[nH]c2)c2nc(C)cc(N3CCc4c(cc(Cn5ccnc5)cc4-c4cn(C)nc4C(F)(F)F)C3=O)c2c1` [Example 201, 7-((1H-imidazol-1-yl)methyl)-2-(6-methoxy-2-methyl-8-(1H-pyrazol-4-yl)quinolin-4-yl)-5-(1-methyl-3-(trifluoromethyl)-1H-pyrazol-4-yl)-3,4-dihydroisoquinolin-1(2H)-one], the Ki in assay [1] turned out to be 0.023 nM. In assay [2], the GI50 was 23 nM.

Consider `COc1cnc2cc(C)cc(N3CCc4c(cc(Cn5ccnc5)cc4-c4cn(C)nc4C(F)(F)F)C3=O)c2c1` [Example 202, 7-((1H-Imidazol-1-yl)methyl)-2-(3-methoxy-7-methylquinolin-5-yl)-5-(1-methyl-3-(trifluoromethyl)-1H-pyrazol-4-yl)-3,4-dihydroisoquinolin-1(2H)-one], for which the inhibition constant (Ki) in assay [1] turned out to be 0.02 nM. The GI50 in assay [2] was less than 20 nM.
